Test results taken from PubChem BioAssay AID1918953 (Molecular Pharmacology Branch, DTP, NCI, 2023).

System: MDA-MB-231 complex spheroid viability
Assay: Anticancer human tumor MDA-MB-231/ATCC cell line growth inhibition;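 further: drug exposure lasted 7 days starting on day 3 of spheroid growth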
Conditions: for IC50: curve of first compound; for viability, T/C: stronger effect = lower value
Outline: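 Complex spheroids of tumor cells with HUVEC and human MSCs, exposed to iadademstat combined with other agents. Each agent tested in half-log steps from near clinical Cmax (else 10 microM top), DMSO ≤0.25%.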

[1] = second compound 0.1 µM, first compound 0.00316 µM
[2] = second compound 0.1 µM, first compound 0.01 µM
[3] = second compound 0.1 µM, first compound 0.0316 µM
[4] = second compound 0.1 µM, first compound 0.1 µM
[5] = second compound 0.1 µM, first compound 0.316 µM
[6] = second compound 0.1 µM, first compound 1 µM
[7] = second compound 0.316 µM, first compound 0.00316 µM
[8] = second compound 0.316 µM, first compound 0.01 µM
[9] = second compound 0.316 µM, first compound 0.0316 µM
[10] = second compound 0.316 µM, first compound 0.1 µM
[11] = second compound 0.316 µM, first compound 0.316 µM
[12] = second compound 0.316 µM, first compound 1 µM
[13] = second compound 1 µM, first compound 0.00316 µM
[14] = second compound 1 µM, first compound 0.01 µM
[15] = second compound 1 µM, first compound 0.0316 µM
[16] = second compound 1 µM, first compound 0.1 µM
[17] = second compound 1 µM, first compound 0.316 µM
[18] = second compound 1 µM, first compound 1 µM
[19] = second compound 3.16 µM, first compound 0.00316 µM
[20] = second compound 3.16 µM, first compound 0.01 µM
[21] = second compound 3.16 µM, first compound 0.0316 µM
[22] = second compound 3.16 µM, first compound 0.1 µM
[23] = second compound 3.16 µM, first compound 0.316 µM
[24] = second compound 3.16 µM, first compound 1 µM
[25] = second compound 10 µM, first compound 0.00316 µM
[26] = second compound 10 µM, first compound 0.01 µM
[27] = second compound 10 µM, first compound 0.0316 µM
[28] = second compound 10 µM, first compound 0.1 µM
[29] = second compound 10 µM, first compound 0.316 µM
[30] = second compound 10 µM, first compound 1 µM

**Q.** `Nc1ncn(C2CC(O)C(CO)S2)c(=O)n1` (stereo not given) + NC1CC1c1ccc(-c2cccc(O)c2)cc1 was tested. Which IC50 (second compound 0.1 µM) did it give?
**A.** 7.45 nM

**Q.** And the IC50 (second compound 0.316 µM)?
**A.** 5.79 nM

**Q.** And the IC50 (second compound 1 µM)?
**A.** 3.18 nM

**Q.** And the IC50 (second compound 3.16 µM)?
**A.** 4.17 nM

**Q.** And the IC50 (second compound 10 µM)?
**A.** 1.08 nM

**Q.** What about the viability, T/C (second compound 0.1 µM, first compound 0.000949 µM) of the same molecule?
**A.** 68.5%

**Q.** And the viability, T/C (second compound 0.1 µM, first compound 0.003 µM)?
**A.** 61.9%

**Q.** And the viability, T/C (second compound 0.1 µM, first compound 0.00949 µM)?
**A.** 45.6%

**Q.** And the viability, T/C (second compound 0.1 µM, first compound 0.03 µM)?
**A.** 32.4%

**Q.** And the viability, T/C (second compound 0.1 µM, first compound 0.0949 µM)?
**A.** 17%

**Q.** What about the viability, T/C (second compound 0.1 µM, first compound 0.3 µM) of the same molecule?
**A.** 11.3%

**Q.** And the viability, T/C (second compound 0.316 µM, first compound 0.000949 µM)?
**A.** 60.4%

**Q.** And the viability, T/C (second compound 0.316 µM, first compound 0.003 µM)?
**A.** 59.5%

**Q.** And the viability, T/C (second compound 0.316 µM, first compound 0.00949 µM)?
**A.** 43.5%

**Q.** What about the viability, T/C (second compound 0.316 µM, first compound 0.03 µM) of the same molecule?
**A.** 27.6%

**Q.** And the viability, T/C (second compound 0.316 µM, first compound 0.0949 µM)?
**A.** 17.8%

**Q.** And the viability, T/C (second compound 0.316 µM, first compound 0.3 µM)?
**A.** 9.51%

**Q.** And the viability, T/C (second compound 1 µM, first compound 0.000949 µM)?
**A.** 54%

**Q.** And the viability, T/C (second compound 1 µM, first compound 0.003 µM)?
**A.** 53.4%

**Q.** What about the viability, T/C (second compound 1 µM, first compound 0.00949 µM) of the same molecule?
**A.** 39.1%

**Q.** And the viability, T/C (second compound 1 µM, first compound 0.03 µM)?
**A.** 28.5%

**Q.** What about the viability, T/C (second compound 1 µM, first compound 0.0949 µM) of the same molecule?
**A.** 18.3%

**Q.** What about the viability, T/C (second compound 1 µM, first compound 0.3 µM) of the same molecule?
**A.** 10.4%

**Q.** What about the viability, T/C (second compound 3.16 µM, first compound 0.000949 µM) of the same molecule?
**A.** 59.4%

**Q.** What about the viability, T/C (second compound 3.16 µM, first compound 0.003 µM) of the same molecule?
**A.** 53.7%

**Q.** And the viability, T/C (second compound 3.16 µM, first compound 0.00949 µM)?
**A.** 41.1%

**Q.** What about the viability, T/C (second compound 3.16 µM, first compound 0.03 µM) of the same molecule?
**A.** 31%

**Q.** And the viability, T/C (second compound 3.16 µM, first compound 0.0949 µM)?
**A.** 16.1%

**Q.** What about the viability, T/C (second compound 3.16 µM, first compound 0.3 µM) of the same molecule?
**A.** 9.57%

**Q.** What about the viability, T/C (second compound 10 µM, first compound 0.000949 µM) of the same molecule?
**A.** 51.1%

**Q.** And the viability, T/C (second compound 10 µM, first compound 0.003 µM)?
**A.** 41.2%

**Q.** And the viability, T/C (second compound 10 µM, first compound 0.00949 µM)?
**A.** 28.2%

**Q.** What about the viability, T/C (second compound 10 µM, first compound 0.03 µM) of the same molecule?
**A.** 19.5%

**Q.** And the viability, T/C (second compound 10 µM, first compound 0.0949 µM)?
**A.** 12.1%

**Q.** And the viability, T/C (second compound 10 µM, first compound 0.3 µM)?
**A.** 9.21%

**Q.** What does the source list for `O=C(C=Cn1cnc(-c2cc(C(F)(F)F)cc(C(F)(F)F)c2)n1)NNc1cnccn1` + NC1CC1c1ccc(-c2cccc(O)c2)cc1?
**A.** IC50 (second compound 0.1 µM): < 3.16 nM; IC50 (second compound 0.316 µM): < 3.16 nM; IC50 (second compound 1 µM): < 3.16 nM; IC50 (second compound 3.16 µM): < 3.16 nM; IC50 (second compound 10 µM): < 3.16 nM; viability, T/C [1]: 27.7%; viability, T/C [2]: 27.4%; viability, T/C [3]: 13.1%; viability, T/C [4]: 5.67%; viability, T/C [5]: 4.44%; viability, T/C [6]: 5.61%; viability, T/C [7]: 28.6%; viability, T/C [8]: 27.3%; viability, T/C [9]: 13.2%; viability, T/C [10]: 5.36%; viability, T/C [11]: 5.11%; viability, T/C [12]: 5.35%; viability, T/C [13]: 25.6%; viability, T/C [14]: 25.4%; viability, T/C [15]: 14.6%; viability, T/C [16]: 4.77%; viability, T/C [17]: 4.77%; viability, T/C [18]: 4.71%; viability, T/C [19]: 27%; viability, T/C [20]: 25%; viability, T/C [21]: 13.6%; viability, T/C [22]: 5.37%; viability, T/C [23]: 6.01%; viability, T/C [24]: 4.79%; viability, T/C [25]: 22.5%; viability, T/C [26]: 17.5%; viability, T/C [27]: 14.9%; viability, T/C [28]: 5.78%; viability, T/C [29]: 6.15%; viability, T/C [30]: 7.13%

**Q.** Which results are given for `Nc1ncn(C2CC(O)C(CO)O2)c(=O)n1` (stereo not given) + NC1CCC(NC2CC2c2ccccc2)CC1?
**A.** IC50 (second compound 0.1 µM): > 1000 nM; IC50 (second compound 0.316 µM): > 1000 nM; IC50 (second compound 1 µM): > 1000 nM; IC50 (second compound 3.16 µM): > 1000 nM; IC50 (second compound 10 µM): 283 nM; viability, T/C [1]: 94%; viability, T/C [2]: 94.1%; viability, T/C [3]: 92.3%; viability, T/C [4]: 81.3%; viability, T/C [5]: 71.7%; viability, T/C [6]: 60.4%; viability, T/C [7]: 98.2%; viability, T/C [8]: 96.7%; viability, T/C [9]: 92.8%; viability, T/C [10]: 86.3%; viability, T/C [11]: 66.8%; viability, T/C [12]: 62.7%; viability, T/C [13]: 96.9%; viability, T/C [14]: 94.5%; viability, T/C [15]: 89.2%; viability, T/C [16]: 71.5%; viability, T/C [17]: 67.4%; viability, T/C [18]: 63.9%; viability, T/C [19]: 86%; viability, T/C [20]: 84.1%; viability, T/C [21]: 79.2%; viability, T/C [22]: 72.8%; viability, T/C [23]: 59%; viability, T/C [24]: 54.9%; viability, T/C [25]: 67%; viability, T/C [26]: 65.5%; viability, T/C [27]: 63%; viability, T/C [28]: 55.4%; viability, T/C [29]: 45.2%; viability, T/C [30]: 45.1%

**Q.** `COc1ccc([C@@H](O)c2cc(-c3ncnc4cc(N5CCOCC5)ccc34)c(F)cc2Cl)nn1` + NC1CCC(NC2CC2c2ccccc2)CC1 was tested. Which IC50 (second compound 0.1 µM) did it give?
**A.** 483 nM

**Q.** And the IC50 (second compound 0.316 µM)?
**A.** 555 nM

**Q.** And the IC50 (second compound 1 µM)?
**A.** 669 nM

**Q.** And the IC50 (second compound 3.16 µM)?
**A.** 505 nM

**Q.** What about the IC50 (second compound 10 µM) of the same molecule?
**A.** 280 nM

**Q.** And the viability, T/C [3]?
**A.** 89.3%

**Q.** What about the viability, T/C [4] of the same molecule?
**A.** 75.7%

**Q.** What about the viability, T/C [5] of the same molecule?
**A.** 55.6%

**Q.** And the viability, T/C [6]?
**A.** 40.3%

**Q.** What about the viability, T/C (second compound 0.1 µM, first compound 3.16 µM) of the same molecule?
**A.** 27.9%

**Q.** And the viability, T/C (second compound 0.1 µM, first compound 10 µM)?
**A.** 24.6%

**Q.** And the viability, T/C [9]?
**A.** 91.5%

**Q.** And the viability, T/C [10]?
**A.** 79.3%

**Q.** What about the viability, T/C [11] of the same molecule?
**A.** 59.1%

**Q.** What about the viability, T/C [12] of the same molecule?
**A.** 41.2%

**Q.** What about the viability, T/C (second compound 0.316 µM, first compound 3.16 µM) of the same molecule?
**A.** 27.6%

**Q.** And the viability, T/C (second compound 0.316 µM, first compound 10 µM)?
**A.** 26%

**Q.** And the viability, T/C [15]?
**A.** 96.6%

**Q.** What about the viability, T/C [16] of the same molecule?
**A.** 79.8%

**Q.** And the viability, T/C [17]?
**A.** 65.7%

**Q.** What about the viability, T/C [18] of the same molecule?
**A.** 41.9%

**Q.** What about the viability, T/C (second compound 1 µM, first compound 3.16 µM) of the same molecule?
**A.** 28.9%

**Q.** What about the viability, T/C (second compound 1 µM, first compound 10 µM) of the same molecule?
**A.** 23.8%

**Q.** What about the viability, T/C [21] of the same molecule?
**A.** 74.2%

**Q.** And the viability, T/C [22]?
**A.** 72.1%

**Q.** What about the viability, T/C [23] of the same molecule?
**A.** 54.2%

**Q.** What about the viability, T/C [24] of the same molecule?
**A.** 42.3%

**Q.** What about the viability, T/C (second compound 3.16 µM, first compound 3.16 µM) of the same molecule?
**A.** 27.2%

**Q.** What about the viability, T/C (second compound 3.16 µM, first compound 10 µM) of the same molecule?
**A.** 24.4%

**Q.** And the viability, T/C [27]?
**A.** 62.8%

**Q.** And the viability, T/C [28]?
**A.** 61%

**Q.** And the viability, T/C [29]?
**A.** 47.5%

**Q.** What about the viability, T/C [30] of the same molecule?
**A.** 36.5%

**Q.** What about the viability, T/C (second compound 10 µM, first compound 3.16 µM) of the same molecule?
**A.** 28%

**Q.** And the viability, T/C (second compound 10 µM, first compound 10 µM)?
**A.** 24.3%
